These results are taken from patent publication US8470841B2, “Heterocyclic compounds, processes for their preparation, medicaments comprising these compounds, and the use thereof” (Sanofi, priority 2008, dated 2013).

Like-named read-outs stand apart in the source and are kept apart here. Where only a bound is given, the exact number is not on record here.

In assay [1] the target is human ACC2 (Homo sapiens (Human), UniProt O00763). The format is biochemical. To be noted: for IC50: human ACC2, read-out: IC50 (hACC2).
Assay [2] deals with rACC1 (Rattus norvegicus (Rat), UniProt P11497). Kind of assay: Enzymatic assay of ACC inhibitors, rat ACC1. Type of assay: biochemical. How it is done:
The enzymatic activity of ACC and its inhibition by test substances were determined by a luminometric assay. The reaction mixture contained 50 mM tris acetate (Merck, #1.08382.1000), pH 7.5, 250 μM acetyl coenzyme A (Sigma, #A2181),16 mM NaHCO3 (Merck, #1.06329.0500), 0.9 mg/ml bovine serum albumin (Sigma, #A8806), 25 μM ATP (Sigma, #A7699), 1.1 μM β-mercaptoethanol (Roth, #4227,1), 4.3 mM magnesium acetate ((Merck, #1.05819.0250), 10 mM sodium citrate (Merck, #1.06448.0500) and 200-400 ng of the ACC preparations. The mixture also contained a test compound. The test compounds were each dissolved in 10 mM DMSO and were assayed at final concentrations of 0 μM, 0.01 μM, 0.03 μM, 0.1 μM, 0.3 μM, 1 μM, 3 μM, 10 μM, 30 μM and 100 μM. The final concentration of the DMSO in the assay was 0.1% (v/v). The reaction was started by adding ACC and was carried out at 37° C. for 90 min. The reaction was then stopped by adding 150 μl of 0.5 M tris acetate. […] After incubation for 10 min, the luminescence was measured in a luminometer (Tecan Genios Pro).
The crude luminescence data were transferred into a Microsoft Excel file. The luminescence measured in the absence of ACC in the reaction mixture was defined as 100%. […] Dose-effect plots were calculated with the XL.Fit program as specified by the producer (IDBS). […]

Assay [3] addresses human ACC1 (Homo sapiens (Human), UniProt Q13085).
Assay [4] addresses rACC2 (Rattus norvegicus, UniProt O70151). Kind of assay: Enzymatic assay of ACC inhibitors, rat ACC2. Type of assay: biochemical. The procedure: The enzymatic activity of ACC and its inhibition by test substances were determined by a luminometric assay. The reaction mixture contained 50 mM tris acetate (Merck, #1.08382.1000), pH 7.5, 250 μM acetyl coenzyme A (Sigma, #A2181),16 mM NaHCO3 (Merck, #1.06329.0500), 0.9 mg/ml bovine serum albumin (Sigma, #A8806), 25 μM ATP (Sigma, #A7699), 1.1 μM β-mercaptoethanol (Roth, #4227,1), 4.3 mM magnesium acetate ((Merck, #1.05819.0250), 10 mM sodium citrate (Merck, #1.06448.0500) and 200-400 ng of the ACC preparations. The mixture also contained a test compound. The test compounds were each dissolved in 10 mM DMSO and were assayed at final concentrations of 0 μM, 0.01 μM, 0.03 μM, 0.1 μM, 0.3 μM, 1 μM, 3 μM, 10 μM, 30 μM and 100 μM. The final concentration of the DMSO in the assay was 0.1% (v/v). The reaction was started by adding ACC and was carried out at 37° C. for 90 min. The reaction was then stopped by adding 150 μl of 0.5 M tris acetate. 10 μl of the mixture were removed and mixed with 90 μl of ATP monitoring reagent (Cambrex, #LT27-002). After incubation for 10 min, the luminescence was measured in a luminometer (Tecan Genios Pro).
The crude luminescence data were transferred into a Microsoft Excel file. The luminescence measured in the absence of ACC in the reaction mixture was defined as 100%. The value in the presence of ACC with 0 μM test compound was set at 0%. Dose-effect plots were calculated with the XL.Fit program as specified by the producer (IDBS). The IC50 of a test substance was the concentration of the test compound at which a luminescence of 50% was measured.

The test system of assay [5] is C2C12 mouse muscle cell line. Kind of assay: Palmitate oxidation in a mouse muscle cell line (C2C12). To be noted: 10 μM. The format is cell-based. How it is done: In another pharmacological test both compounds were tested for palmitate oxidation in a mouse muscle cell line (C2C12) which is also mediated by ACC inhibition.
Setting [6] is: relative to comparative example 59, respective rat ACC isoforms.
[7] abbreviates: relative to comparative example 59.

Sequence of human ACC2 (O00763 151-2458): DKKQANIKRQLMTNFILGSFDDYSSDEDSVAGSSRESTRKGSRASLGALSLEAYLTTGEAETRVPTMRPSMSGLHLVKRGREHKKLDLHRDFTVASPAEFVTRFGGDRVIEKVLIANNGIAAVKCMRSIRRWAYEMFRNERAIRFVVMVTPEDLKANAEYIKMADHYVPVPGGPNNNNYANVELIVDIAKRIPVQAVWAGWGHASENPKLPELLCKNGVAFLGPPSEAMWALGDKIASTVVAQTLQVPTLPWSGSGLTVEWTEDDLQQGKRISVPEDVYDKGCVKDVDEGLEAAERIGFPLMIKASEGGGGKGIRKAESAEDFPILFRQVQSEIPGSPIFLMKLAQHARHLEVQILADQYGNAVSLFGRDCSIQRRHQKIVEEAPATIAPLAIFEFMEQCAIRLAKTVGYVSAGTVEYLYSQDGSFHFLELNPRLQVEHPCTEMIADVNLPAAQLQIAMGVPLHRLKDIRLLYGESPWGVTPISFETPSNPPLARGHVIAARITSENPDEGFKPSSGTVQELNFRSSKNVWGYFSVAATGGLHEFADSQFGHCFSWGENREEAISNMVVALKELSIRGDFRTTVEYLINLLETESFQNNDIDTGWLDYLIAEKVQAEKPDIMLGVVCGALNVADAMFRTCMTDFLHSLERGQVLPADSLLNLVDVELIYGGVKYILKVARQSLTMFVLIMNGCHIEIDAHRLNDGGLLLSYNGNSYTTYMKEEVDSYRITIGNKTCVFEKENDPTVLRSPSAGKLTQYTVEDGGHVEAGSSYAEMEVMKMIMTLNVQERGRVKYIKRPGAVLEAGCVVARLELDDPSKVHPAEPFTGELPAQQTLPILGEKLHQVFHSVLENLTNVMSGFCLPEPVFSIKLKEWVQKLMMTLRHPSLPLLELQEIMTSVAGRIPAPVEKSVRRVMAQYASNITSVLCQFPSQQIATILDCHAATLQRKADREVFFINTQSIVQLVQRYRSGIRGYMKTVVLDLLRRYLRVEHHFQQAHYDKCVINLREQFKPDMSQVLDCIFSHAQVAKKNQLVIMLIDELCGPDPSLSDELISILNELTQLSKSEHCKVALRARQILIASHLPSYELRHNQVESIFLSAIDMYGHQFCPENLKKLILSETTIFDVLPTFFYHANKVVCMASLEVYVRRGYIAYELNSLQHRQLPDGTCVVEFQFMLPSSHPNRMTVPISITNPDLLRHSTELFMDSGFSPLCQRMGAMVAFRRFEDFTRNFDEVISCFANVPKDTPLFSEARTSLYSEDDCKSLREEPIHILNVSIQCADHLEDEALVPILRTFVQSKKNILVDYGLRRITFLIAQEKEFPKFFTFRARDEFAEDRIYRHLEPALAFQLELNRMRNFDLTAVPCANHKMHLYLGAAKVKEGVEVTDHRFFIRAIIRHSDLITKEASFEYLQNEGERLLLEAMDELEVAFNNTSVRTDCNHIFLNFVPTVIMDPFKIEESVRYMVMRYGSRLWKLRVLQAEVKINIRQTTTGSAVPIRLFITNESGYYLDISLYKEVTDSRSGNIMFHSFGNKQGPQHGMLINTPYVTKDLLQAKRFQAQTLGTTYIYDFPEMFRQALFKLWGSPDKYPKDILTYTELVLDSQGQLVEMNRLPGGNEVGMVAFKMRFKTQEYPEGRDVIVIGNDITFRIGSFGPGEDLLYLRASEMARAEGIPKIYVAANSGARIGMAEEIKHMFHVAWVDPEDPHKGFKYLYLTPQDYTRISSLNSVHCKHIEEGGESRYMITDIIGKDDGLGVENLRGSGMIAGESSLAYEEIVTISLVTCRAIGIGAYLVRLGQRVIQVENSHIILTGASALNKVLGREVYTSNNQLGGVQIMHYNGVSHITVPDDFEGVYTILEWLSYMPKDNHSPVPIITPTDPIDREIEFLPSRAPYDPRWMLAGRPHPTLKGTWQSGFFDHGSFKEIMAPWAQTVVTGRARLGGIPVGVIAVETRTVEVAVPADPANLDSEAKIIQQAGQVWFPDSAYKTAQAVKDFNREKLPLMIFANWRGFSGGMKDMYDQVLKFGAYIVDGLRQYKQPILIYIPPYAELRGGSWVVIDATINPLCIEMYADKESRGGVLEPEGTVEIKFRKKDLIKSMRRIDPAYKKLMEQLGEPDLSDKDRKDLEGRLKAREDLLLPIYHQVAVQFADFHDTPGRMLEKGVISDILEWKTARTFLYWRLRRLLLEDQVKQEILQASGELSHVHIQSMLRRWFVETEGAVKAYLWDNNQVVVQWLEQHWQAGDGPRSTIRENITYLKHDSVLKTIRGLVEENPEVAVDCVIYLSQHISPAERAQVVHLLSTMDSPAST
Sequence of rACC2 (O70151 1-2456): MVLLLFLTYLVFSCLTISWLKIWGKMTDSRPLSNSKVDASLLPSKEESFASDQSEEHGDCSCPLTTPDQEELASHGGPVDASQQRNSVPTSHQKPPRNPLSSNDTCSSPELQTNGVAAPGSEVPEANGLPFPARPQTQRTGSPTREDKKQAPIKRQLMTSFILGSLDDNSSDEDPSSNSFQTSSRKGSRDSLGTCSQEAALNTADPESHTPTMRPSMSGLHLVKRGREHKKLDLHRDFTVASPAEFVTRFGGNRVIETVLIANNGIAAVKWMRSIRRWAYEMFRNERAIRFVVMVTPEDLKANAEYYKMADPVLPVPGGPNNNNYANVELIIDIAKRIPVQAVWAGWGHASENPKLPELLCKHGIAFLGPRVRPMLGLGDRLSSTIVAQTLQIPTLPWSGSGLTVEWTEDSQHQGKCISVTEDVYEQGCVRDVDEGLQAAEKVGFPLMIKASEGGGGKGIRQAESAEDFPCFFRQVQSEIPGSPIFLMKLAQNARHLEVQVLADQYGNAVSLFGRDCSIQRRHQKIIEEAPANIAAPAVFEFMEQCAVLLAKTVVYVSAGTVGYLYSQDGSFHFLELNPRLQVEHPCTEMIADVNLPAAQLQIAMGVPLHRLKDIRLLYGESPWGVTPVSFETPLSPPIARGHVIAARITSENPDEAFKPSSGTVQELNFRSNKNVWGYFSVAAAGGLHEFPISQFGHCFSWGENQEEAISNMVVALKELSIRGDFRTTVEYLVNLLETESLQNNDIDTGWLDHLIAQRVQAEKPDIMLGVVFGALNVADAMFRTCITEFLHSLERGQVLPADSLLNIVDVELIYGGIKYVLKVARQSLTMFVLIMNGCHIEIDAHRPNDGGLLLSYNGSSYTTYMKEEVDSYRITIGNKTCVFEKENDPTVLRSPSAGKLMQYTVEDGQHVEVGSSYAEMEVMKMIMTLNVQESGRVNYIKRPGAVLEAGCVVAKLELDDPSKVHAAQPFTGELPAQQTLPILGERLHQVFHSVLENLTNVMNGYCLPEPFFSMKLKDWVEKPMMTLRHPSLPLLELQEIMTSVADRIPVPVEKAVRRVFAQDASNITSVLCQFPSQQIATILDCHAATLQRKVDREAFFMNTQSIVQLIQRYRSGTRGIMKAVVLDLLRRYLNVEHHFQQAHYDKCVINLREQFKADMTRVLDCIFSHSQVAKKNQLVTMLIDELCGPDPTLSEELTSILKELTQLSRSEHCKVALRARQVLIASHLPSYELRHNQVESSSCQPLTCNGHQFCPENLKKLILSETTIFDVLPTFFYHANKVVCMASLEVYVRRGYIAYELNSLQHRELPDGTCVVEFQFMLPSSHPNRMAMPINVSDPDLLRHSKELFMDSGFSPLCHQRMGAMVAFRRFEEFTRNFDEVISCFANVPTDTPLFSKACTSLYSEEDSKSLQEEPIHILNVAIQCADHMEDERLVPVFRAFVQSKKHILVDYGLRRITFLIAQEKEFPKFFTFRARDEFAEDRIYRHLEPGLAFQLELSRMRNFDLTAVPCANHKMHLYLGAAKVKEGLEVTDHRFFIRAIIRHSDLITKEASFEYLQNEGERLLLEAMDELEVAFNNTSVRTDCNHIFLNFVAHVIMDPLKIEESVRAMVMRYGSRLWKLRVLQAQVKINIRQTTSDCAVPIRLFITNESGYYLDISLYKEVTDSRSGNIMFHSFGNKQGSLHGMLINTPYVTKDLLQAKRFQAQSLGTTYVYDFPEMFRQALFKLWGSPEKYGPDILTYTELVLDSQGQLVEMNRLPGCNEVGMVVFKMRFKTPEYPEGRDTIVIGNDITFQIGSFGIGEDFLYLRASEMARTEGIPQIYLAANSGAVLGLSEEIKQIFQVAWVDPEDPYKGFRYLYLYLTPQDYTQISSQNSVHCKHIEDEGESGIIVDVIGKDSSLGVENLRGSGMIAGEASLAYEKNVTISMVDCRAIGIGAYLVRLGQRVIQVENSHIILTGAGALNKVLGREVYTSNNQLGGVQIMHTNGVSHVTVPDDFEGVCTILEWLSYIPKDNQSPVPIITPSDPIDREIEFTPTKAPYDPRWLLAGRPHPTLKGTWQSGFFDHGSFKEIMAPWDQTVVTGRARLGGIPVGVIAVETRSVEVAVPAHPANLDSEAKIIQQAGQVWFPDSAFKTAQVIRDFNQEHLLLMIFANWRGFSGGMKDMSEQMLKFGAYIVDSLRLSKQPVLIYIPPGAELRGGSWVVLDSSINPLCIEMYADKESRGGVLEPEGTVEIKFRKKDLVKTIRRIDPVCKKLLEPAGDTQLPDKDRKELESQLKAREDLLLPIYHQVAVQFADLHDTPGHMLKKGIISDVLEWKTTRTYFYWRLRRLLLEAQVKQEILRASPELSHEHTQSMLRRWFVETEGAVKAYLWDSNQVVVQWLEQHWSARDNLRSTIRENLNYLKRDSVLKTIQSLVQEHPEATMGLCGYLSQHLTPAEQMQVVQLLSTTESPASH

On to `CC(=O)NC(C)COc1ccc(Oc2ccc(OC(C)C)cn2)cc1` (centres unmarked) [Example 27, N-{2-[4-(5-Isopropoxypyridin-2-yloxy)phenoxy]-1-methylethyl}acetamide], for which, in assay [1], the IC50 was 1300 nM.
The same measure, in the same setting: the figure for `CC(=O)NC(C)CCc1ccc(Oc2cnc(OC(C)C)nc2)cc1` (centres unmarked) [Example 40, N-{3-[4-(2-Isopropoxypyrimidin-5-yloxy)phenyl]-1-methylpropyl}acetamide] is 740 nM; for `CC(=O)NC(C)CCc1ccc(Oc2ccc(OCC3CCC3)cn2)cc1` (centres unmarked) [Example 12, N-{3-[4-(5-Cyclobutylmethoxypyridin-2-yloxy)phenyl]-1-methylpropyl}acetamide] it is 50 nM.
The same measure, in the same setting: next, `CC(CCc1ccc(Oc2ccc(OC(C)C)nc2)cc1)NC(N)=O` (centres unmarked) [Example 47, {3-[4-(6-Isopropoxypyridin-3-yloxy)phenyl]-1-methylpropyl}urea]: 150 nM.
Take `CC(=O)NC(C)CCc1ccc(Oc2ccc(OCc3ccccc3)nc2)cc1` (centres unmarked) [Example 36, N-{3-[4-(6-Benzyloxypyridin-3-yloxy)phenyl]-1-methylpropyl}acetamide]: in assay [1], the IC50 is 70 nM.
On the same count and under the same terms, the figure for `CC(=O)NC(C)CCc1ccc(Oc2cnc(OC(C)C)cn2)cc1` (centres unmarked) [Example 49, N-{3-[4-(5-Isopropoxypyrazin-2-yloxy)phenyl]-1-methylpropyl}acetamide] is 1200 nM; for `CC(=O)NCCC[C@H]1OC[C@H](Oc2ncc(OC(C)C)cc2Cl)CO1` [Example 25, trans-N-{3-[5-(3-chloro-5-isopropoxypyridin-2-yloxy)-[1,3]dioxan-2-yl]propyl}acetamide] it is 380 nM.
For the compound `CC(=O)N[C@@H](C)CCc1ccc(Oc2ccc(OC(C)C)nc2)cc1` [Example 35, N—{(S)-3-[4-(6-Isopropoxypyridin-3-yloxy)phenyl]-1-methylpropyl}acetamide], the IC50 in assay [2] (rat ACC1) is 170 nM; in assay [3] (read-out: IC50 hACC (human ACC1), human ACC1, table row printed as hACC) it was 190 nM; in assay [1] it was 30 nM; in assay [4] (rat ACC2, read-out: IC50 rACC2), 400 nM. The “times higher potency than example 59, rat ACC1” value in assay [2] (setting [6]) is above 3 times. The “times higher potency than example 59, human ACC1” value in assay [3] (setting [7]) is around 40 times. Further, in assay [1] (setting [7]), the “times higher potency than example 59, human ACC2” value was “approx. 5 times”. For the same compound, the “times higher potency than example 59, rat ACC2” value in assay [4] (setting [6]) is listed as above 3 times. Moreover, the “stimulation of cellular fat (palmitate) oxidation” value in assay [5] is given as 1.7 fold.
`CC(=O)N[C@@H](C)COc1ccc(Oc2ccc(OC(C)C)cc2)nc1` [Example 39, N—{(S)-2-[6-(4-Isopropoxyphenoxy)pyridin-3-yloxy]-1-methylethyl}acetamide]: the half-maximal inhibitory concentration (IC50) in assay [1] was determined as 2500 nM.
On to `CC(CCc1ccc(Oc2ccc(OC(C)C)nc2)cc1)NC(=O)CO` (centres unmarked) [Example 48, 2-Hydroxy-N-{3-[4-(6-isopropoxypyridin-3-yloxy)phenyl]-1-methylpropyl}acetamide], for which, in assay [1], the concentration for half-maximal inhibition (IC50) was found to be 900 nM.
The same measure, in the same setting: the figure for `CC(=O)NC(C)CCc1ccc(Oc2ncc(OC(C)C)cc2Cl)cc1` (centres unmarked) [Example 32, N-{3-[4-(3-Chloro-5-isopropoxypyridin-2-yloxy)phenyl]-1-methylpropyl}acetamide] is 1300 nM; for `CC(=O)NC(C)CCc1ccc(Oc2ccc(OCc3ccccc3)cn2)cc1` (centres unmarked) [Example 9, N-{3-[4-(5-Benzyloxypyridin-2-yloxy)phenyl]-1-methylpropyl}acetamide] it is 140 nM.
On the same count and under the same terms, next, `CC(CCc1ccc(Oc2ccc(OC(C)C)nc2)cc1)NC(=O)C1CC1` (centres unmarked) [Example 44, N-{3-[4-(6-Isopropoxypyridin-3-yloxy)phenyl]-1-methylpropyl}cyclopropanecarboxamide]: 90 nM; `CC(=O)NCCC[C@H]1OC[C@H](Oc2ccc(OC(C)C)cn2)CO1` [Example 23, trans-N-{3-[5-(5-isopropoxypyridin-2-yloxy)-[1,3]dioxan-2-yl]-propyl}acetamide]: 2000 nM.
With `CC(=O)N[C@@H](C)COc1ccc(Oc2ccc(OC(C)C)cc2)cc1` [Example 59, N—{(S)-2-[4-(4-Isopropoxyphenoxy)phenoxy]-1-methylethyl}acetamide, reference compound], the IC50 in assay [4] is 1500 nM. The “stimulation of cellular fat (palmitate) oxidation” value in assay [5] was “no effect”.
Take `CC(=O)NC(C)CCc1ccc(Oc2ccc(OC3CCOC3)cn2)cc1` (centres unmarked) [Example 20, N-(1-Methyl-3-{4-[5-(tetrahydrofuran-3-yloxy)pyridin-2-yloxy]phenyl}propyl)acetamide]: in assay [1], the 50% inhibitory concentration (IC50) stood at 3600 nM.
On to `CC(=O)N[C@@H](C)CCc1ccc(Oc2ccc(OCc3ccccc3)cn2)cc1` [Example 19, N—{(S)-3-[4-(5-Benzyloxypyridin-2-yloxy)phenyl]-1-methylpropyl}acetamide], for which, in assay [1], the IC50 amounted to 100 nM.
On to `CC(=O)N[C@@H](C)COc1ccc(Oc2ccc(OC(C)C)cn2)cc1` [Example 29, N—{(S)-2-[4-(5-Isopropoxypyridin-2-yloxy)phenoxy]-1-methylethyl}acetamide], for which the half-maximal inhibitory concentration (IC50) in assay [1] is 1200 nM.
In the case of `CC(=O)NCCC[C@H]1OC[C@H](Oc2ccc(OC3CCCC3)cc2)CO1` [Example 6, trans-N-{3-[5-(4-Cyclopentyloxyphenoxy)-[1,3]dioxan-2-yl]propyl}acetamide], in assay [1], the IC50 was determined as 200 nM.
With `CC(=O)NC(C)CCc1ccc(Oc2ccc(OC(C)C)nc2)cc1` (centres unmarked) [Example 33, N-{3-[4-(6-Isopropoxypyridin-3-yloxy)phenyl]-1-methylpropyl}acetamide], in assay [1], the 50% inhibitory concentration (IC50) turned out to be 60 nM.
Still for that read-out and setting: the figure for `CC(=O)NCCC[C@H]1OC[C@H](Oc2ccc(OCc3ccccc3)cn2)CO1` [Example 17, trans-N-{3-[5-(5-benzyloxypyridin-2-yloxy)-[1,3]dioxan-2-yl]propyl}acetamide] is 50 nM; for `CC(=O)NC(C)CCC1CCC(Oc2ccc(OC(C)C)nc2)CC1` (centres unmarked) [Example 52, N-{3-[4-(6-Isopropoxypyridin-3-yloxy)cyclohexyl]-1-methylpropyl}acetamide] it is 80 nM.
On the same count and under the same terms, the figure for `CC(=O)NC(C)CCc1ccc(Oc2ccc(OC3CCCC3)cn2)cc1` (centres unmarked) [Example 2, N-{3-[4-(5-Cyclopentyloxypyridin-2-yloxy)phenyl]-1-methylpropyl}acetamide] is 140 nM.
Still for that read-out and setting: the figure for `CC(CCc1ccc(Oc2ccc(OC(C)C)nc2)cc1)NC=O` (centres unmarked) [Example 45, N-{3-[4-(6-Isopropoxypyridin-3-yloxy)phenyl]-1-methylpropyl}formamide] is 670 nM.
For `CCCOc1ccc(Oc2ccc(CCC(C)NC(C)=O)cc2)nc1` (centres unmarked) [Example 11, N-{1-Methyl-3-[4-(5-propoxypyridin-2-yloxy)phenyl]propyl}acetamide], in assay [1], the IC50 came to 140 nM.
On the same count and under the same terms, the figure for `CC(=O)NC(C)CCc1ccc(Oc2ccc(OCC3CC3)nc2)cc1` (centres unmarked) [Example 50, N-{3-[4-(6-Cyclopropylmethoxypyridin-3-yloxy)phenyl]-1-methylpropyl}acetamide] is 170 nM; for `COC(=O)NC(C)CCc1ccc(Oc2ccc(OC(C)C)nc2)cc1` (centres unmarked) [Example 46, Methyl {3-[4-(6-isopropoxypyridin-3-yloxy)phenyl]-1-methylpropyl}carbamate] it is 210 nM; for `CC(=O)NCCC[C@H]1OC[C@H](Oc2ccc(OCc3ccccc3)cc2)CO1` [Example 4, trans-N-{3-[5-(4-benzyloxyphenoxy)-[1,3]dioxan-2-yl]propyl}acetamide] it is 400 nM.
Turning to `CC(=O)NC(C)CCc1cnc(Oc2ccc(OCc3ccccc3)nc2)nc1` (centres unmarked) [Example 37, N-{3-[2-(6-Benzyloxypyridin-3-yloxy)pyrimidin-5-yl]-1-methylpropyl}acetamide], the IC50 in assay [1] is 5900 nM.
